Measured values taken from publication PMC5290327, “SC83288 is a clinical development candidate for the treatment of severe malaria” (Nature Communications, 2017).

Key:
Experiment in all cases: KINOMEscan
Assay type in all cases: binding
Settings in all cases: read-out: Remaining enzyme activity
AKT1 = molecular target: T1, AKT1 (Homo sapiens, UniProt P31749)
T1 construct: purchased Ambit (DiscoverX) KINOMEscan; Cerep
Method in brief: (§1)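 Three components per well: DNA-labelled kinase, bead-bound ligand, compound (SC81458, 10 μM final). Blocking buffer: SeaBlock, 1% BSA, 0.05% Tween 20, 1 mM DTT. Readout = qPCR of kinase in eluate.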

ASK2 = molecular target: T2, ASK2 (Homo sapiens, UniProt O95382)
T2 construct: purchased Ambit (DiscoverX) KINOMEscan; Cerep
Method in brief: as §1

CAMK2g = molecular target: T3, CAMK2g (Homo sapiens, UniProt Q13555)
T3 construct: purchased Ambit (DiscoverX) KINOMEscan; Cerep
Method in brief: as §1

CAMKK2 = molecular target: T4, CAMKK2 (Homo sapiens, UniProt Q96RR4)
T4 construct: purchased Ambit (DiscoverX) KINOMEscan; Cerep
Method in brief: as §1

CDC2L2 = molecular target: T5, CDC2L2 (Homo sapiens, UniProt Q9UQ88)
T5 construct: purchased Ambit (DiscoverX) KINOMEscan; Cerep
Method in brief: as §1

CDK5 = molecular target: T6, CDK5 (Homo sapiens, UniProt Q00535)
T6 construct: purchased Ambit (DiscoverX) KINOMEscan; Cerep
T6 sequence (Q00535 whole entry): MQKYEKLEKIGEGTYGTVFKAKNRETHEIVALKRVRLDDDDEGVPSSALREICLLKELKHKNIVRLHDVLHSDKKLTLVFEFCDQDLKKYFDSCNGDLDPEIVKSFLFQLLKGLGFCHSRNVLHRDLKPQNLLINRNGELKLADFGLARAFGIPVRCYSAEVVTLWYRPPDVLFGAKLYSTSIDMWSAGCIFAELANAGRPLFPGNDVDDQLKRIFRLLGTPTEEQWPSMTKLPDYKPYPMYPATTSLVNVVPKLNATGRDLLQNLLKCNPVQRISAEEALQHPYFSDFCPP
Method in brief: as §1

CDK8 = molecular target: T7, CDK8 (Homo sapiens, UniProt P49336)
T7 construct: purchased Ambit (DiscoverX) KINOMEscan; Cerep
Method in brief: as §1

CLK4 = molecular target: T8, CLK4 (Homo sapiens, UniProt Q9HAZ1)
T8 construct: purchased Ambit (DiscoverX) KINOMEscan; Cerep
Method in brief: as §1

CSK = molecular target: T9, CSK (Homo sapiens, UniProt P41240)
T9 construct: purchased Ambit (DiscoverX) KINOMEscan; Cerep
Method in brief: as §1

CSNK1d = molecular target: T10, CSNK1d (Homo sapiens, UniProt P48730)
T10 construct: purchased Ambit (DiscoverX) KINOMEscan; Cerep
T10 sequence (P48730 whole entry): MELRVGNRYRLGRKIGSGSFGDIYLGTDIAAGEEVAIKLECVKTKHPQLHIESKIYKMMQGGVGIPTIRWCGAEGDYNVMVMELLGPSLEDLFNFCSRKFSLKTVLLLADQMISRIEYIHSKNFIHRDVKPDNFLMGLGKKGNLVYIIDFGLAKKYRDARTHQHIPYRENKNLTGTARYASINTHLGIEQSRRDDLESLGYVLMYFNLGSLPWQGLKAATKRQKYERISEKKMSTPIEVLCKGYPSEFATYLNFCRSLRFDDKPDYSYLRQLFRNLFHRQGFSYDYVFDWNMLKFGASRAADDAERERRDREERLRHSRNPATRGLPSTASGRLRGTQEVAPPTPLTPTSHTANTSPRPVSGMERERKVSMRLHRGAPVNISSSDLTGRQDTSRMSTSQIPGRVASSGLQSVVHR
Method in brief: as §1

DCAMKL2 = molecular target: T11, DCAMKL2 (Homo sapiens, UniProt Q8N568)
T11 construct: purchased Ambit (DiscoverX) KINOMEscan; Cerep
Method in brief: as §1

EGFR(G719C) = molecular target: T12, EGFR(G719C) (Homo sapiens, UniProt P00533, G719C)
T12 construct: purchased Ambit (DiscoverX) KINOMEscan; Cerep
Method in brief: as §1

EGFR(L747-T751del, Sins) = molecular target: T13, EGFR(L747-T751del, Sins) (Homo sapiens, UniProt P00533, DEL747-750/T751S)
T13 construct: purchased Ambit (DiscoverX) KINOMEscan; Cerep
Method in brief: as §1

EPHA3 = molecular target: T14, EPHA3 (Homo sapiens, UniProt P29320)
T14 construct: purchased Ambit (DiscoverX) KINOMEscan; Cerep
Method in brief: as §1

FES = molecular target: T15, FES (Homo sapiens, UniProt P07332)
T15 construct: purchased Ambit (DiscoverX) KINOMEscan; Cerep
Method in brief: as §1

FRK = molecular target: T16, FRK (Homo sapiens, UniProt P42685)
T16 construct: purchased Ambit (DiscoverX) KINOMEscan; Cerep
T16 sequence (P42685 whole entry): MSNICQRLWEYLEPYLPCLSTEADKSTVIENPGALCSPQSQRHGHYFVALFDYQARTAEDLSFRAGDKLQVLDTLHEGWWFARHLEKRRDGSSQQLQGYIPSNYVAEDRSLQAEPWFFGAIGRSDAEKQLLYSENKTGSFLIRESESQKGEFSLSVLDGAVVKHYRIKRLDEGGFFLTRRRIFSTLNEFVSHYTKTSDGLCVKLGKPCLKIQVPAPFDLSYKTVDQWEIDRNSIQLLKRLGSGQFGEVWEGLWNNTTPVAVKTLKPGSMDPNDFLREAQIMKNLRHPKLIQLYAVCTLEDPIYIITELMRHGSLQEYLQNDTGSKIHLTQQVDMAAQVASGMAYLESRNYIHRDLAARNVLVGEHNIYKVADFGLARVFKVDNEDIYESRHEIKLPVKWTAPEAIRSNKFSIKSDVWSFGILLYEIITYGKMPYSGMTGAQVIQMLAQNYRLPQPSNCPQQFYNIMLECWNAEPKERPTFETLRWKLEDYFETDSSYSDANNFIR
Method in brief: as §1

IRAK3 = molecular target: T17, IRAK3 (Homo sapiens, UniProt Q9Y616)
T17 construct: purchased Ambit (DiscoverX) KINOMEscan; Cerep
Method in brief: as §1

KIT(D816V) = molecular target: T18, KIT(D816V) (Homo sapiens, UniProt P10721, D816V)
T18 construct: purchased Ambit (DiscoverX) KINOMEscan; Cerep
Method in brief: as §1

LKB1 = molecular target: T19, LKB1 (Homo sapiens, UniProt Q15831)
T19 construct: purchased Ambit (DiscoverX) KINOMEscan; Cerep
Method in brief: as §1

MEK6 = molecular target: T20, MEK6 (Homo sapiens, UniProt P52564)
T20 construct: purchased Ambit (DiscoverX) KINOMEscan; Cerep
Method in brief: as §1

MYLK2 = molecular target: T21, MYLK2 (Homo sapiens, UniProt Q9H1R3)
T21 construct: purchased Ambit (DiscoverX) KINOMEscan; Cerep
T21 sequence (Q9H1R3 whole entry): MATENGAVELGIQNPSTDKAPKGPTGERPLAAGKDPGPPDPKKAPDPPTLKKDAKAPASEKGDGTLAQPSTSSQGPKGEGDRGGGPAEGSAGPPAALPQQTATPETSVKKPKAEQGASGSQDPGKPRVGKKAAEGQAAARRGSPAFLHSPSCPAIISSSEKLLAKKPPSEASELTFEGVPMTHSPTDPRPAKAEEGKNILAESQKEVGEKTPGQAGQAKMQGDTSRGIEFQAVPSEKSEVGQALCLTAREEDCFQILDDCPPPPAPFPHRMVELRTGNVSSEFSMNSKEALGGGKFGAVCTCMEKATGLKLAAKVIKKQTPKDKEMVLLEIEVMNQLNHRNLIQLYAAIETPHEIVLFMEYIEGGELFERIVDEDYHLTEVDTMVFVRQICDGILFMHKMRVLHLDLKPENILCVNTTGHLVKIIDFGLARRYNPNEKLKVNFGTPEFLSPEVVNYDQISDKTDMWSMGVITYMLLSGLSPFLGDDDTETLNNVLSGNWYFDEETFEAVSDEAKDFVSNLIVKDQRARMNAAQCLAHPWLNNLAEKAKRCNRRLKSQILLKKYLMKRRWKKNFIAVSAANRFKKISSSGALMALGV
Method in brief: as §1

PIK3CA(C420R) = molecular target: T22, PIK3CA(C420R) (Homo sapiens, UniProt P42336, C420R)
T22 construct: purchased Ambit (DiscoverX) KINOMEscan; Cerep
Method in brief: as §1

PKMYT1 = molecular target: T23, PKMYT1 (Homo sapiens, UniProt Q99640)
T23 construct: purchased Ambit (DiscoverX) KINOMEscan; Cerep
Method in brief: as §1

PRKCD = molecular target: T24, PRKCD (Homo sapiens, UniProt Q05655)
T24 construct: purchased Ambit (DiscoverX) KINOMEscan; Cerep
T24 sequence (Q05655 whole entry): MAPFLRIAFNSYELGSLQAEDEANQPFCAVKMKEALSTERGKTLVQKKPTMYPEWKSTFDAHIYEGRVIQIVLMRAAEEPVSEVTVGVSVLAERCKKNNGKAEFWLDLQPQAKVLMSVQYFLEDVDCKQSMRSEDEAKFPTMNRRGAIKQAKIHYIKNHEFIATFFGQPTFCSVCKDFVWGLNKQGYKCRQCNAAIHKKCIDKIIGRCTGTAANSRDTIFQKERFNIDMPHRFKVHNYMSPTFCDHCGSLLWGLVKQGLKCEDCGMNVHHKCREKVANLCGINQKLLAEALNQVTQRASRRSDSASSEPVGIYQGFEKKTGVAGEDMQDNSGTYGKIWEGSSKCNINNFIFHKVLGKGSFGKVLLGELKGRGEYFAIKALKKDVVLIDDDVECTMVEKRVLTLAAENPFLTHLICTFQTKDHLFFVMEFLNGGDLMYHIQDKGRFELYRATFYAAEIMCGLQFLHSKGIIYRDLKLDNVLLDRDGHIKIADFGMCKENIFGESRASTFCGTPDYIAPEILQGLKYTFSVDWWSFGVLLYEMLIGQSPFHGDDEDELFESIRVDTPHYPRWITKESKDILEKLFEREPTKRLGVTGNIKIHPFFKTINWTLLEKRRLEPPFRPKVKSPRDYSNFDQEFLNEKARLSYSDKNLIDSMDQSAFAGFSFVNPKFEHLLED
Method in brief: as §1

PRP4 = molecular target: T25, PRP4 (Homo sapiens, UniProt Q13523)
T25 construct: purchased Ambit (DiscoverX) KINOMEscan; Cerep
Method in brief: as §1

RIOK1 = molecular target: T26, RIOK1 (Homo sapiens, UniProt Q9BRS2)
T26 construct: purchased Ambit (DiscoverX) KINOMEscan; Cerep
Method in brief: as §1

RIPK4 = molecular target: T27, RIPK4 (Homo sapiens, UniProt P57078)
T27 construct: purchased Ambit (DiscoverX) KINOMEscan; Cerep
Method in brief: as §1

TAK1 = molecular target: T28, TAK1 (Homo sapiens, UniProt O43318)
T28 construct: purchased Ambit (DiscoverX) KINOMEscan; Cerep
Method in brief: as §1

TAO1 = molecular target: T29, TAO1 (Homo sapiens, UniProt Q9UL54)
T29 construct: purchased Ambit (DiscoverX) KINOMEscan; Cerep
T29 sequence (Q9UL54 whole entry): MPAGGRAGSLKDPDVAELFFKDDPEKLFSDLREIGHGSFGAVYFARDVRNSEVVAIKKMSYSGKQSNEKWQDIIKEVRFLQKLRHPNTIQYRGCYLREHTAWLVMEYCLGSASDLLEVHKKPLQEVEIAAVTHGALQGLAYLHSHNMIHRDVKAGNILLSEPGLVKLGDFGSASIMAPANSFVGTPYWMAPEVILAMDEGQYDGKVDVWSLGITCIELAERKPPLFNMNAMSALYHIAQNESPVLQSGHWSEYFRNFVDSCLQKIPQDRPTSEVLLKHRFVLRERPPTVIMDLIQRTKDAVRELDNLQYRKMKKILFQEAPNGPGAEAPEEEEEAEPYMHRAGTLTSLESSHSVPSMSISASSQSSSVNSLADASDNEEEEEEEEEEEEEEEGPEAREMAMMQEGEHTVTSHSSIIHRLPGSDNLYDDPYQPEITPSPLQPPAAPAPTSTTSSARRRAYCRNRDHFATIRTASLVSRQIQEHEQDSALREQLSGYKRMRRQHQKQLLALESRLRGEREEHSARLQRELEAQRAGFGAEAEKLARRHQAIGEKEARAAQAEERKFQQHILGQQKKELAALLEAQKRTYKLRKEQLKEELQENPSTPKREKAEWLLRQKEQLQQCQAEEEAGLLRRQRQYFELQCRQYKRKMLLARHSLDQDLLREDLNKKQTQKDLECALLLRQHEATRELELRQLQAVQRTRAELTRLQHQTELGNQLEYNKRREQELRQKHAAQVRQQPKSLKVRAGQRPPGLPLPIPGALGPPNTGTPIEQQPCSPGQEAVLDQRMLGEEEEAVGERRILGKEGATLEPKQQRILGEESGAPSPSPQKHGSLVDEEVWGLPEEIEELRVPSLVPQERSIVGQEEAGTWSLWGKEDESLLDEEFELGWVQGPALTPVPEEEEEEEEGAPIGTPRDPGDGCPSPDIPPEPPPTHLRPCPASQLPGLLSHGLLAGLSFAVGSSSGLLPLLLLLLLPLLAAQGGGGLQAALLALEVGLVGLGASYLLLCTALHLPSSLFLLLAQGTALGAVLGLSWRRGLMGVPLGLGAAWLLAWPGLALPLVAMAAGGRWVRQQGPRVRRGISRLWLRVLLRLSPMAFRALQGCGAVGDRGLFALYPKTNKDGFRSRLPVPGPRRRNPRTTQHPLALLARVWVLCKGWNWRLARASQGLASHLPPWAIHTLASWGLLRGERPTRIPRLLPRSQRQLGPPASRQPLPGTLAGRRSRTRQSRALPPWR
Method in brief: as §1

TIE1 = molecular target: T30, TIE1 (Homo sapiens, UniProt P35590)
T30 construct: purchased Ambit (DiscoverX) KINOMEscan; Cerep
Method in brief: as §1

TNNI3K = molecular target: T31, TNNI3K (Homo sapiens, UniProt Q59H18)
T31 construct: purchased Ambit (DiscoverX) KINOMEscan; Cerep
Method in brief: as §1

TYRO3 = molecular target: T32, TYRO3 (Homo sapiens, UniProt Q06418)
T32 construct: purchased Ambit (DiscoverX) KINOMEscan; Cerep
Method in brief: as §1

VEGFR2 = molecular target: T33, VEGFR2 (Homo sapiens, UniProt P35968)
T33 construct: purchased Ambit (DiscoverX) KINOMEscan; Cerep
Method in brief: as §1

ZAK = molecular target: T34, ZAK (Homo sapiens, UniProt Q9NYL2)
T34 construct: purchased Ambit (DiscoverX) KINOMEscan; Cerep
T34 sequence (Q9NYL2 whole entry): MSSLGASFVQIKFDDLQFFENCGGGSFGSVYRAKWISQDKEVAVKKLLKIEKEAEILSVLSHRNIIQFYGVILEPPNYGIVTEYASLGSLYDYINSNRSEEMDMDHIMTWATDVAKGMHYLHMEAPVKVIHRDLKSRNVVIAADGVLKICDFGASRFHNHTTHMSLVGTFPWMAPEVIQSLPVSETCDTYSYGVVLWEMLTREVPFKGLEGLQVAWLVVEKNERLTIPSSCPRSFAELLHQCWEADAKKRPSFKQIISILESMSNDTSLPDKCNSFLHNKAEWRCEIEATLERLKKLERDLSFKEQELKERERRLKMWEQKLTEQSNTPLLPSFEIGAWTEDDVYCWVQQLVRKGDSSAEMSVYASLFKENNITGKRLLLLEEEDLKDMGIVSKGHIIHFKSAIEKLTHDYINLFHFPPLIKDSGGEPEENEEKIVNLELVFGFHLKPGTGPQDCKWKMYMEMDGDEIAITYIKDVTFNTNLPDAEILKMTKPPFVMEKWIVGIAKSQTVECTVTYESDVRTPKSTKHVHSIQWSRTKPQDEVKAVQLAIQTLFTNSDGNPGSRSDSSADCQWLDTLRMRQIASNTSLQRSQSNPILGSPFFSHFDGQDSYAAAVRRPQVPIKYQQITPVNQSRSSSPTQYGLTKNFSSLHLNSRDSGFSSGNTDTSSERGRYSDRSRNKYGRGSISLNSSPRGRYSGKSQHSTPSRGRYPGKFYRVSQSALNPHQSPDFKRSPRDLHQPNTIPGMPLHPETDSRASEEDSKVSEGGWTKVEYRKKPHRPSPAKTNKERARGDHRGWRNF
Method in brief: as §1

T1 sequence (P31749 whole entry): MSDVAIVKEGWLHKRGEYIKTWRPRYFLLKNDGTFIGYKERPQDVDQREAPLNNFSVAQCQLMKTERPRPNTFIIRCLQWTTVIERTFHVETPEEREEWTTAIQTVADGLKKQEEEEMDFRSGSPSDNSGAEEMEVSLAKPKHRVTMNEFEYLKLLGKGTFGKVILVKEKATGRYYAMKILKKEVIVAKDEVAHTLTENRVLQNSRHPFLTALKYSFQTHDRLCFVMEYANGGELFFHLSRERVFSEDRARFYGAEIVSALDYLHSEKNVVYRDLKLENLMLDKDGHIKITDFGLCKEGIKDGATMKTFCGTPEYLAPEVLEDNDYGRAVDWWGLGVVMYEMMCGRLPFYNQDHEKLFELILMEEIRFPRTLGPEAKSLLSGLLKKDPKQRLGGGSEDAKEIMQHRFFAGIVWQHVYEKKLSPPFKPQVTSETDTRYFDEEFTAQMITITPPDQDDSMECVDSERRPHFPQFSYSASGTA

SMILES: CCCCN1CCN(C(=N)c2cccc(NC(=O)Nc3ccc(S(=O)(=O)NCc4ccc(S(N)(=O)=O)cc4)cc3)c2)CC1 [SC81458, 4-(3-(3-((4-butylpiperazin-1-yl)(imino)methyl)phenyl)ureido)-N-(4-sulfamoylbenzyl) benzenesulfonamide]
- remaining binding at 10 µM (AKT1): 87%
- remaining binding at 10 µM (ASK2): 100%
- remaining binding at 10 µM (CAMK2g): 100%
- remaining binding at 10 µM (CAMKK2): 100%
- remaining binding at 10 µM (CDC2L2): 100%
- remaining binding at 10 µM (CDK5): 100%
- remaining binding at 10 µM (CDK8): 100%
- remaining binding at 10 µM (CLK4): 92%
- remaining binding at 10 µM (CSK): 100%
- remaining binding at 10 µM (CSNK1d): 100%
- remaining binding at 10 µM (DCAMKL2): 100%
- remaining binding at 10 µM (EGFR(G719C)): 80%
- remaining binding at 10 µM (EGFR(L747-T751del, Sins)): 69%
- remaining binding at 10 µM (EPHA3): 100%
- remaining binding at 10 µM (FES): 100%
- remaining binding at 10 µM (FRK): 100%
- remaining binding at 10 µM (IRAK3): 69%
- remaining binding at 10 µM (KIT(D816V)): 100%
- remaining binding at 10 µM (LKB1): 88%
- remaining binding at 10 µM (MEK6): 81%
- remaining binding at 10 µM (MYLK2): 100%
- remaining binding at 10 µM (PIK3CA(C420R)): 100%
- remaining binding at 10 µM (PKMYT1): 90%
- remaining binding at 10 µM (PRKCD): 100%
- remaining binding at 10 µM (PRP4): 100%
- remaining binding at 10 µM (RIOK1): 75%
- remaining binding at 10 µM (RIPK4): 74%
- remaining binding at 10 µM (TAK1): 100%
- remaining binding at 10 µM (TAO1): 100%
- remaining binding at 10 µM (TIE1): 99%
- remaining binding at 10 µM (TNNI3K): 100%
- remaining binding at 10 µM (TYRO3): 79%
- remaining binding at 10 µM (VEGFR2): 84%
- remaining binding at 10 µM (ZAK): 100%
